Laboratory results as given in ChEMBL document CHEMBL1135457 (J Med Chem, 2002).
pKi: −log10 of the molar value.

What was measured:
[1] = molecular target: T1, Androgen receptor (Homo sapiens, UniProt P10275); test: Displacement of [3H]DHT from human Androgen receptor
T1 sequence (P10275 whole entry): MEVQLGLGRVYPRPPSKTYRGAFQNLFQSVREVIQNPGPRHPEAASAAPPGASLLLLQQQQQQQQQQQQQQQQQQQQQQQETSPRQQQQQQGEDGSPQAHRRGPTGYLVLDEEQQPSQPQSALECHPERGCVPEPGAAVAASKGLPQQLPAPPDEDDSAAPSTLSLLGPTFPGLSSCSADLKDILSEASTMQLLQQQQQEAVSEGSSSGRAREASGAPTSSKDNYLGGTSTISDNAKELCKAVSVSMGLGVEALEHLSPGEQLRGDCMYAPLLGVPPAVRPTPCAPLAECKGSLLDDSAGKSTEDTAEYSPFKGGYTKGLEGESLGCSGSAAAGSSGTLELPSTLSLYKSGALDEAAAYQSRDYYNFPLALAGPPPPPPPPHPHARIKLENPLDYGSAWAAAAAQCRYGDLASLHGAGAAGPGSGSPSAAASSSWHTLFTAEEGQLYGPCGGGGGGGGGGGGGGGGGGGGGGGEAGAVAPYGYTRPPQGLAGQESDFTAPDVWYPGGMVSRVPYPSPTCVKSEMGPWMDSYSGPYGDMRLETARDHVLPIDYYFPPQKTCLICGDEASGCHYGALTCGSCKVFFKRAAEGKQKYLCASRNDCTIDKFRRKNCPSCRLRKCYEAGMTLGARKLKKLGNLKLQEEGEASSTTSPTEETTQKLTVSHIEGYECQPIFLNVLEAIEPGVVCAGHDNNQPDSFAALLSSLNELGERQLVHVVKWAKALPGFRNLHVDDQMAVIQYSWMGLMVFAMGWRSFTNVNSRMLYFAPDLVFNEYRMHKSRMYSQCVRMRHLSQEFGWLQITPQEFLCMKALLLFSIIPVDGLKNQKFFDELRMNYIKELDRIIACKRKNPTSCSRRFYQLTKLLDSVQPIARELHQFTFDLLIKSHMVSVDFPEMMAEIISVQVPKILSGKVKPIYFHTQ

[2] = molecular target: T2, Estrogen receptor beta (Homo sapiens, UniProt Q92731); test: Displacement of radioligand from human ER beta
[3] = molecular target: T3, Glucocorticoid receptor (Homo sapiens) (UniProt P04150)
T3 sequence (whole entry): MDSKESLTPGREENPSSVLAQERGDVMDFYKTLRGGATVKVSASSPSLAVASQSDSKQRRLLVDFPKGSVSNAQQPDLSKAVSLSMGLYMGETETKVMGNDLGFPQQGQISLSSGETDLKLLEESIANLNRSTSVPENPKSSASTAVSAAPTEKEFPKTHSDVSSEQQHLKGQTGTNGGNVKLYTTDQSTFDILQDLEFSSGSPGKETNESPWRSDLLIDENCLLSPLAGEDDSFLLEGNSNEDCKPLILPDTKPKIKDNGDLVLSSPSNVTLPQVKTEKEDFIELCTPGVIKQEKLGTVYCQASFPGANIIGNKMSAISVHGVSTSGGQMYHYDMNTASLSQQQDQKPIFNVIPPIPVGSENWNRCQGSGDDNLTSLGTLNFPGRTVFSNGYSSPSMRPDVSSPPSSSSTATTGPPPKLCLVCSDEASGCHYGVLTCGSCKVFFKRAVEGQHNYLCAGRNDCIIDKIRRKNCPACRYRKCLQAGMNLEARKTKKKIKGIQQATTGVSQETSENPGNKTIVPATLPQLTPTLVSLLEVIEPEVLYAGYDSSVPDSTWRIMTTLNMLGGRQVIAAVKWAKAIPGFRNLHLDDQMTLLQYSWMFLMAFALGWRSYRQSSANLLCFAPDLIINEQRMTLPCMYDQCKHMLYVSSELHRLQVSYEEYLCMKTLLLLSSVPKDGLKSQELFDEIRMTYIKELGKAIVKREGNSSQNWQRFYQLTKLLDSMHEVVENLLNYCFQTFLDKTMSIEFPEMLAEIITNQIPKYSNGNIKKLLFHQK
Description: Antagonist activity as displacement of 10 nM [3H]dexamethasone from human Glucocorticoid receptor

[4] = molecular target: T4, Mineralocorticoid receptor (Homo sapiens) (UniProt P08235); conditions: 1 uM
T4 sequence (whole entry): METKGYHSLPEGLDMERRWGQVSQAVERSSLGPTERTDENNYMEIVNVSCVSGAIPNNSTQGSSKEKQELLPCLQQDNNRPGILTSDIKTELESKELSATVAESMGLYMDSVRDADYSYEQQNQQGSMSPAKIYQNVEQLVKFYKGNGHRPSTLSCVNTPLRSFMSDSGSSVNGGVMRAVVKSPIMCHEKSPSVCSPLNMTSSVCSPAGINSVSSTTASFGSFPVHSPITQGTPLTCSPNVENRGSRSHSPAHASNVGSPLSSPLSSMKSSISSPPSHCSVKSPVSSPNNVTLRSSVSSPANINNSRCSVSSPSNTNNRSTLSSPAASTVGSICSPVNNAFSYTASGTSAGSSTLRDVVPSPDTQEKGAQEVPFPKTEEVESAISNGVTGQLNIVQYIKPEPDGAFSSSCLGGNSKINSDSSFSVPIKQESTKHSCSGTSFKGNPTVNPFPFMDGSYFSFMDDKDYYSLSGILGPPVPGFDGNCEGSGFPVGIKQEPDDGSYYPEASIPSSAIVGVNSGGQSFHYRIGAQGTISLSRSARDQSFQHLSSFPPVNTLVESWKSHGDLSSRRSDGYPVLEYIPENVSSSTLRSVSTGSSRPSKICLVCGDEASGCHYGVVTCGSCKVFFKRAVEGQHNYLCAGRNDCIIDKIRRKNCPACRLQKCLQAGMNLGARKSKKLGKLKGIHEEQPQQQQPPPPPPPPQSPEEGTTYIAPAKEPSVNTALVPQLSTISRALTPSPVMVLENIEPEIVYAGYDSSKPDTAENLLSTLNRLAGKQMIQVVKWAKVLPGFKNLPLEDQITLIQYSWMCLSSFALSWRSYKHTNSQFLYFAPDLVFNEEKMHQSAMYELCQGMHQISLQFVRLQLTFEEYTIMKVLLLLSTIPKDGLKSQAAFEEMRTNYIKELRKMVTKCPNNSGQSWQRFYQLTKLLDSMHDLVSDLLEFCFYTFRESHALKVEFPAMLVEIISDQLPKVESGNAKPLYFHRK
Description: Antagonist activity against human mineralocorticoid receptor as displacement of radioligand, percent inhibition at 1 uM

[5] = molecular target: T4, Mineralocorticoid receptor (Homo sapiens)
Description: Antagonist activity against human mineralocorticoid receptor as displacement of radioligand

[6] = molecular target: T2, Estrogen receptor beta; test: Displacement of radioligand from human Estrogen receptor beta, percent inhibition at 10 uM

T2 sequence (Q92731 whole entry): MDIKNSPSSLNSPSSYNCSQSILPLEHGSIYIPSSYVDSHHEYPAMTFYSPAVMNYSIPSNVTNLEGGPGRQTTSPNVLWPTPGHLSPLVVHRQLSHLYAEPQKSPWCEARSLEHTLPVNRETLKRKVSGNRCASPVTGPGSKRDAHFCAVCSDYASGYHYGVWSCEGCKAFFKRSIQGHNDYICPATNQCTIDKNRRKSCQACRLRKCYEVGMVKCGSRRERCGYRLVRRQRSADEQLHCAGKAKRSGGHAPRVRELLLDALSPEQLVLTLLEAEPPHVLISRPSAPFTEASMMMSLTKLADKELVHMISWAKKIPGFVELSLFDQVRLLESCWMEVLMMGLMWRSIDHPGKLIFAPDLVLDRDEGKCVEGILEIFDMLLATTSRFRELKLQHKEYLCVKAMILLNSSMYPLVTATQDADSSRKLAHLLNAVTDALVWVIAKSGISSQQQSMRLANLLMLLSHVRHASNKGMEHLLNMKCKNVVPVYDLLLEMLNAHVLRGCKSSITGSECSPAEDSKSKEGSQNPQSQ

SMILES	pKi [1]	pKi [2]	Kif [3] [nM]	inhibition [4] [%]	Kif [5] [nM]	inhibition [6] [%]
CC#C[C@]1(O)CCC2C3CCC4=CC(=O)CC[C@]4(Cc4ccc(C)cc4)C3=CC[C@@]21C (some centres not stated)	7.05	< 5.00	12	0	> 1000	
O=C1CC[C@@]2(Cc3ccccc3)c3ccc(O)cc3CC[C@@H]2C1	5.89					54
Oc1ccc2c(c1)CC[C@@H]1C[C@@](O)(C#CCl)CC[C@@]21Cc1ccccc1	6.89		4.1		> 1000	75
CC#C[C@@]1(O)CC[C@@]2(Cc3ccccc3)c3ccc(O)cc3CC[C@@H]2C1						57
